Entries after “also recorded” stand apart in the source; their conditions may differ. Read-outs that look alike come from different tables or passages of the source.
Columns and labels:
[1] = system: phosphorylated fos-GHRct (fos-GHRct/Jak2 signaling); assay: Cell based primary screen: immune fluorescence (anti-GHR, anti-pY, anti-pJak2, anti-pSTAT5) of fos-GHRct-transfected γ2A iJak2 cells; parameters: species or system human; conditions: for phosphorylation of STAT5 (pSTAT5) / phosphorylation of fos-pGHRct (pY) / phosphorylation of the active site of Jak2 (p1007/1008): concentration curves, Fig S10
Procedure: Drug handling and cell-based assays are detailed in Supplementary Data 1 , automation. High-Content StratoMineR ([35]). After incubation with the compounds, the cells were fixed and the fluorescence (anti-GHR, anti-pY, anti-pJak2, anti-pSTAT5) was quantitated.
As it was unknown whether the GH/IGF1 axis is druggable, we designed a broad strategy based on our previous studies in which soluble fos-zipped GHR cytosolic tails (fos-GHRct) can serve as signaling complexes if co-expressed with Jak ([32], [39]). Fos-GHRct expressed without Jak2 is immediately degraded by the ubiquitin pathway. Phosphorylated fos-GHRct (fos-pGHRct) detaches from Jak2 and unzips. Only unzipped fos-pGHRct are protected from proteasomal degradation and accumulate in the cell. […] For 6 scenarios the signal will be decreased: (1) inhibition of Jak2 kinase activity, (2) inhibition of fos-GHRct expression, (3) inhibition of the fos-GHRct : Jak2 interaction, (4) increased degradation of fos-pGHRct, (5) increased degradation of Jak2, and (6) dephosphorylation of fos-pGHRct ([32], [39]).
Figure 1 Diagram of the primary screen. […] If fos-GHRct and Jak2 bind via FERM and box-1, Jak2 gets activated and phosphorylates itself, the dimerized fos-GHRct and STAT5b. After phosphorylation of fos-GHRct, Jak2 and STAT5, the complex dissociates. As fos-pGHRct is protease-resistant, it accumulates in the cells. Unphosphorylated fos-GHRct is rapidly degraded. Steady state levels of fos-pGHRct are lower if one of the 6 scenarios is valid. The cell-based assay was performed in γ2A cells carrying inducible Jak2 (iJak2) or binding-deficient iJak2 Y119E (as control) ( Figure 2 ). […]
1. Cell based primary screen
The assay was based on Fos-zippered GHR cytosolic tails (fos-GHRct) subsequently acting […]
Fig S1A. Immune Fluorescence staining of γ2a Fig S1B. Immune Fluorescence staining of γ2a monoclonal cell line stably transfected with an monoclonal cell line stably transfected with an inducible Jak2 WT expression construct. inducible Jak2 Y119E expression construct. aim we used a human fibroblast cell line
From this line we generated doxycycline inducible Jak2 clones, expressing either wild type Jak2 or Y119E mutant Jak2 whose FERM domain does […]
To establish a sensitive test, sufficient […]
control the system, we used fos-GHRct mutated in box-1 or the cell line expressing mutant (Y119E) Jak2. The box-1 motif is the binding site of Jak2 in GHR; mutation of this motif (all four proline into alanine) is known to reduce the binding between GHR and Jak2. In the primary screen we measured 4 different signals: fos-GHRct (anti-GHR), tyrosine phosphorylated fos-GHRct (anti-pY), tyrosine phosphorylated Jak2 (anti-pY or anti- […]
inhibition of either fos-GHRct stabilization or fos-GHRct synthesis, are considered positive.
Immunoblots are not appropriate for high throughput screening. Using fos-GHRct-transfected cells as in Fig. S3 and pY-specific primary antibodies, we developed a high throughput screening assay based on pY-fos-GHRct immune fluorescent detection in 384-well plates with automated microscopy. […]
panel). From left to right: Dapi staining to visualize nuclei, fos-GHRct staining: GHRtails are detected by […]

[2] = system: MM231 breast cancer cells; assay: MM231 orthotopic xenograft, tumor growth; assay type: in vivo, mice; conditions: 1 and 5 mg/kg, 3 injections per week, 3 weeks
Procedure: Female RAG2^-/-; IL-2Rgc^-/- immune deficient mice ([37]) were purchased from Envigo (Horst, The Netherlands). Orthotopic transplantations, longitudinal tumor measurements and bioluminescence imaging were performed as described ([38]). Mice were treated when tumors reached a volume of >50 mm^3, three times weekly for a period of three weeks with the indicated drug concentrations.
BM001, BM002, and BM003 were used in mice xenografted with MM231 breast cancer cells that are GH-responsive both for growth and drug resistance ([42]–[45]). The cells were orthotopically grafted into the inguinal mammary gland, and drug treatments started when tumors reached a volume of >50 mm^3. We used a treatment regimen of 3 injections per week (1 and 5 mg/kg) during 3 weeks (9 mice/group) ( Figure 6 ). Animals were killed when tumor volume exceeded 150 mm^3 or mice presented lung metastasis upon bioluminescence imaging measurements. […] Drug withdrawal effects were not studied until now. […] We observed no adverse side effects neither on appetite and behavior ([46]). […] We next assessed if the identified drugs indeed target the GH/IGF1 pathway and consequently, if they result in a decrease in liver weight and IGF1 levels, as observed in GHR knockout mice and Laron patients ([47]).

[3] = Homo sapiens, Figure 4, ranked according inhibitory effects on GHR signaling and/or cell proliferation, read-out: IC50
[4] = Homo sapiens, Table_2.xlsx, second analogue set, read-out: GHR INHIBITORS, BM#, IC50

Cc1nc(N)nc(N)c1/C=C/C1(c2ccc(C(F)(F)F)cc2)CC1 [BM001]
IC50 [1, 3]: 20 to 30 nM
EC50 ([1]; Homo sapiens, Table_2.xlsx, cell prints EC50, read-out: GHR INHIBITORS, BM#, EC50): 20 to 30 nM
tumor growth / tumor volume (in words) [2]: strong decrease; also recorded: continued to suppress tumor growth; also recorded: inhibit tumor growth; also recorded: tumor regression

Cc1c(-c2cccc(C#N)c2)ccc2nc(N)nc(N)c12 [BM002]
IC50 [1, 4]: 50 nM
tumor growth / tumor volume (in words) [2]: started to increase again; also recorded: inhibit tumor growth

COc1cc(CN(C)c2ccc3nc(N)nc(N)c3c2)cc(OC)c1OC [BM003]
IC50 [1, 4]: 50 nM
tumor growth / tumor volume (in words) [2]: started to increase again; also recorded: inhibit tumor growth

Cc1nc(N)nc(N)c1C#CC1(c2ccc(Cl)cc2)CC1 [BM004]
IC50 [1, 3]: 80 nM
IC50 ([1]; Homo sapiens, primary screen protocol, 20 h, read-out: IC50, dose-response on pY levels (fos-GHRct, pJak2, pSTAT5)): ~200 nM
phosphorylation of STAT5 (pSTAT5) [1]: lowered
phosphorylation of fos-pGHRct (pY) [1]: lowered
phosphorylation of the active site of Jak2 (p1007/1008) [1]: lowered
IC50, dose-response on pY levels (fos-GHRct, pJak2, pSTAT5) ([1]; primary screen protocol, 20 h): comparable to that of Ruxolitinib

CCOc1cccc2nc(N)nc(N)c12 [BM012]
IC50 ([1]; Homo sapiens, Table_1.xlsx, first analogue set, read-out: GHR INHIBITORS, BM#, (IC50)): 900 nM
phosphorylation of STAT5 (pSTAT5) [1]: lowered
phosphorylation of fos-pGHRct (pY) [1]: lowered
phosphorylation of the active site of Jak2 (p1007/1008) [1]: lowered

N#CC[C@H](C1CCCC1)n1cc(-c2ncnc3[nH]ccc23)cn1 [Ruxolitinib, reference compound]
pY signal at plateau of dose-response [1]: close to zero

— PMC9365994, “Small molecules to regulate the GH/IGF1 axis by inhibiting the growth hormone receptor synthesis” (Frontiers in Endocrinology, 2022)
